Laboratory results as given in the supplement of paper PMC8882468.

Key:
Assay in all cases: CTG-3D luminescence at 96 h relative to day-0 seeding control (ratio to day 0); higher = more growth / less cytotoxicity; PDxO 3D drug screen, 96 h, CTG-3D normalised to day-0 seeding control.
HCI-002 = tested on: HCI-002 (organoid from a triple-negative breast cancer xenograft)
HCI-012 = tested on: HCI-012 (organoid from a breast cancer xenograft)
HCI-023 = tested on: HCI-023 (organoid from a triple-negative breast cancer xenograft)
HCI-024 = tested on: HCI-024 (organoid from a breast cancer xenograft)
HCI-025 = tested on: HCI-025 (organoid from a breast cancer xenograft)

NC(=O)Nc1cc(-c2cccc(F)c2)sc1C(=O)N[C@H]1CCCNC1 [AZD7762]
CTG-3D luminescence at 96 h
Settings	12.5 pM	0.00025 µM	0.005 µM	0.1 µM	1 µM	10 µM	100 µM	625 fM
HCI-002, days in culture: 62	2.52	2.46	2.85	2.92	1.41	0.539	0.00339	3.08
HCI-002, days in culture: 82	2.71	3.02	2.27	2.44	1.47	0.623	0.00321	2.87
HCI-002, days in culture: 91	3.98	3.93	3.26	3.87	2.42	0.946	0.00426	4.19
HCI-002, days in culture: 191	2.47	2.51	2.36	2.27	2	0.525	0.00388	2.69
HCI-002, days in culture: 209	2.16	2.27	2.12	1.89	1.31	0.332	0.00089	2.27
HCI-002, days in culture: 227	5.71	5.98	5.18	5.24	2.21	0.595	-0.201	6.1
HCI-012, days in culture: 143	2.11	2.03	2.04	2.67	1.75	0.0896	0.000673	1.69
HCI-012, days in culture: 162	2.58	2.41	1.89	2.83	1.99	0.16	-5.12e-05	3.15
HCI-012, days in culture: 201	2.51	2.18	1.69	1.39	2.14	0.141	0.00358	1.9
HCI-023, days in culture: 111	1.36	1.49	1.15	0.765	0.201	0.0705	-9.95e-05	1.52
HCI-023, days in culture: 128	1.552	1.6	1.32	0.581	0.161	0.133	0.000895	1.67
HCI-024, days in culture: 105	1.28	1.48	1.42	0.635	0.236	0.228	0.00249	1.9
HCI-024, days in culture: 122	1.65	2.38	1.93	0.853	0.308	0.273	0.00352	2.89
HCI-024, days in culture: 163	1.95	1.96	2.02	1.27	0.309	0.267	0.00535	2.34
HCI-025, days in culture: 172	3.17	1.83	2.73	0.677	0.305	0.0747	-0.00404	2.61
HCI-025, days in culture: 209	1.54	2.2	1.92	0.713	0.29	0.0922	-0.00311	1.39
HCI-025, days in culture: 218	1.78	1.97	2.04	1.33	0.198	0.105	-0.00375	1.77

Cc1cc(Nc2ncc(Cl)c(Nc3ccccc3S(=O)(=O)C(C)C)n2)c(OC(C)C)cc1C1CCNCC1 [ceritinib]
CTG-3D luminescence at 96 h
Settings	12.5 pM	0.00025 µM	0.005 µM	0.1 µM	1 µM	10 µM	100 µM	625 fM
HCI-002, days in culture: 62	2.84	2.62	3.08	2.52	2.11	0.00947	-0.00984	3.15
HCI-002, days in culture: 82	3.23	2.64	2.18	2.46	1.76	0.00838	-0.0057	2.72
HCI-002, days in culture: 91	4.25	3.86	3.52	4.11	3.29	0.00341	-0.0215	4.18
HCI-002, days in culture: 191	2.47	2.8	2.59	2.41	2.23	0.00759	-0.00732	2.72
HCI-002, days in culture: 209	2.4	2.59	2.23	2.14	2.03	0.00677	-0.00747	2.35
HCI-002, days in culture: 227	6.1	6.52	5.45	5.99	4.45	-0.223	-0.242	7.25
HCI-012, days in culture: 143	2.17	1.8	1.89	2.08	1.92	0.0093	-0.00596	2.32
HCI-012, days in culture: 162	2.32	2.04	1.68	2.9	2.19	0.0143	-0.00682	2.82
HCI-012, days in culture: 201	2.62	2.34	1.57	1.57	2.44	0.00702	-0.00682	1.54
HCI-023, days in culture: 111	1.47	1.19	1.18	1.12	0.844	0.00455	-0.00268	1.19
HCI-023, days in culture: 128	1.39	1.2	1.17	1.65	0.92736	0.00417	-0.00332	1.65
HCI-024, days in culture: 105	1.05	1.3	1.22	1.29	1.11	0.00435	-0.0037	1.39
HCI-024, days in culture: 122	1.49	2.05	1.23	1.88	1.16	0.00674	-0.00377	2.07
HCI-024, days in culture: 163	2.38	2.03	1.59	2.47	1.74	0.107	-0.00554	2.78
HCI-025, days in culture: 172	2.83	2.05	3.23	2.01	2.79	0.00721	-0.00729	2.37
HCI-025, days in culture: 209	1.92	1.29	1.23	1.33	1.33	0.628	-0.00366	1.68
HCI-025, days in culture: 218	2.02	1.87	1.86	1.8	1.36	1.48	-0.00328	2.18
